Source: ChEMBL document CHEMBL1152784, “Discovery of 4-substituted methoxybenzoyl-aryl-thiazole as novel anticancer agents: synthesis, biological evaluation, and structure-activity relationships” (J Med Chem, 2009)

Assays:
[1] = test system: PC-3; experiment: Cytotoxicity against human PC3 cells after 96 hrs by SRB assay; conditions: PC-3, 96 h
[2] = test system: A-375; experiment: Cytotoxicity against human A375 cells after 48 hrs by SRB assay; assay type: functional, cell-based; conditions: A-375, 48 h
[3] = test system: PPC-1; experiment: Cytotoxicity against human PPC1 cells after 96 hrs by SRB assay
[4] = Cytotoxicity against mouse B16-F1 cells after 48 hrs by SRB assay; assay type: functional, cell-based; conditions: B16-F1, 48 h
[5] = test system: DU-145; experiment: Cytotoxicity against human DU145 cells after 96 hrs by SRB assay; conditions: DU-145, 96 h
[6] = test system: LNCaP; experiment: Cytotoxicity against human LNCAP cells after 96 hrs by SRB assay
[7] = species on record: Bos taurus; experiment: Inhibition of bovine brain tubulin assessed as blockade of microtubule polymerization
[8] = test system: DU-145; experiment: Cytotoxicity against human DU145 cells after 48 hrs by SRB assay; assay type: functional, cell-based; conditions: DU-145, 48 h

| Structure (SMILES) | IC50 [1] | IC50 [2] | IC50 ([3]; Homo sapiens, PPC-1, 96 h) | IC50 [4] | IC50 [5] | IC50 ([6]; Homo sapiens, LNCaP, 96 h) | Activity [7] | IC50 [8] | IC50 ([3]; ppc-1) | IC50 ([6]; lncap) |
| --- | --- | --- | --- | --- | --- | --- | --- | --- | --- | --- |
| COc1cc(OC)cc(C(=O)c2csc(-c3ccccc3)n2)c1 | 0.301 µM | 0.17 µM | 0.242 µM | 0.35 µM | 0.424 µM | 0.323 µM |  |  |  |  |
| COc1cccc(C(=O)c2csc(-c3ccccc3)n2)c1 | > 20 µM | > 100 µM | > 20 µM | > 100 µM | > 20 µM | > 20 µM |  |  |  |  |
| COc1cc(C(=O)c2csc(-c3ccc(C#N)cc3)n2)cc(OC)c1OC | 0.03 µM | 0.059 µM | 0.019 µM |  | 0.052 µM | 0.015 µM |  |  |  |  |
| COc1cc(C(=O)c2csc(-c3ccccc3)n2)cc(OC)c1OC | 0.021 µM | 0.028 µM | 0.043 µM | 0.055 µM | 0.071 µM | 0.028 µM | Dose-dependent effect |  |  |  |
| CCCCCCCCCCCCCCCCC(=O)c1csc(-c2ccccc2)n1 | > 20 µM | 16 µM | > 20 µM | 18.6 µM | > 20 µM | > 20 µM |  |  |  |  |
| CCc1ccc(-c2nc(C(=O)c3cc(OC)c(OC)c(OC)c3)cs2)cc1 | 0.027 µM |  | 0.022 µM | 0.07 µM | 0.031 µM | 0.06 µM |  |  |  |  |
| COc1cc(C(=O)c2csc(-c3ncccn3)n2)cc(OC)c1OC | 2.66 µM | 4.1 µM | 1.19 µM |  | 2.81 µM | 2.37 µM |  |  |  |  |
| COc1cc(C(=O)c2csc(-c3ccc(Br)cc3)n2)cc(OC)c1OC | 0.018 µM | 0.013 µM | 0.021 µM | 0.032 µM | 0.021 µM | 0.044 µM |  |  |  |  |
| O=C(c1cc(O)c(O)c(O)c1)c1csc(-c2ccccc2)n1 | > 20 µM | > 100 µM | > 20 µM | > 100 µM | > 20 µM | > 20 µM |  |  |  |  |
| CCCCCCCCCCCCCCCCNC(=O)[C@@H]1CSC(c2ccc(NC(C)=O)cc2)N1 (mixture of isomers) |  | 2.1 µM | 0.4 µM | 2.2 µM | 1.7 µM | 1 µM |  |  |  |  |
| COc1ccc(-c2nc(C(=O)c3cc(OC)c(OC)c(OC)c3)cs2)cc1OC | 0.069 µM | 0.034 µM | 0.056 µM | 0.161 µM |  | 0.038 µM |  | 102 µM |  |  |
| COc1cc(C(=O)c2csc(-c3ccc([N+](=O)[O-])cc3)n2)cc(OC)c1OC | 0.056 µM |  | 0.034 µM |  | 0.095 µM | 0.039 µM |  |  |  |  |
| COc1cc(C(=O)c2csc(-c3ccncc3)n2)cc(OC)c1OC [listing 1 of 2 here] | > 20 µM | > 100 µM | > 20 µM | > 100 µM | > 20 µM | > 20 µM |  |  |  |  |
| CC(=O)Nc1ccc(C2N[C@H](C(=O)Nc3ccc4c(c3)Cc3ccccc3-4)CS2)cc1 (mixture of isomers) | 2.1 µM |  | 1.6 µM |  | 1.9 µM | 3.5 µM |  |  |  |  |
| COc1cc(NC(=O)[C@@H]2CSC(c3ccccc3)N2)cc(OC)c1OC (mixture of isomers) | > 20 µM | > 100 µM | > 20 µM | > 100 µM | > 20 µM | > 20 µM |  |  |  |  |
| COc1cc(NC(=O)[C@H]2CSC(c3ccccc3)=N2)cc(OC)c1OC | 13.2 µM |  | 3.4 µM | 30.4 µM | > 20 µM | 16.8 µM |  |  |  |  |
| COc1ccc(C(=O)c2csc(-c3ccccc3)n2)cc1OC | > 20 µM | > 100 µM | > 20 µM | > 100 µM | > 20 µM | > 20 µM |  |  |  |  |
| COc1ccc(C(=O)c2csc(-c3ccccc3)n2)cc1 | > 20 µM | > 100 µM | > 20 µM | > 100 µM | > 20 µM | > 20 µM |  |  |  |  |

| Structure (SMILES) | IC50 [1] | IC50 [2] | IC50 ([3]; Homo sapiens, PPC-1, 96 h) | IC50 [4] | IC50 [5] | IC50 ([6]; Homo sapiens, LNCaP, 96 h) | Activity [7] | IC50 [8] | IC50 ([3]; ppc-1) | IC50 ([6]; lncap) |
| --- | --- | --- | --- | --- | --- | --- | --- | --- | --- | --- |
| COc1cc(C(=O)c2csc(-c3ccccc3F)n2)cc(OC)c1OC | 0.082 µM | 0.03 µM | 0.052 µM | 0.027 µM | 0.114 µM | 0.053 µM |  |  |  |  |
| O=C(c1ccccc1)c1csc(-c2ccccc2)n1 | > 20 µM | > 100 µM | > 20 µM | > 100 µM | > 20 µM | > 20 µM |  |  |  |  |
| COc1cc(C(=O)c2csc(-c3ccc(F)cc3)n2)cc(OC)c1OC | 0.013 µM | 0.033 µM |  | 0.043 µM |  | 0.006 µM |  |  |  |  |
| COc1cc(NC(=O)c2csc(-c3ccccc3)n2)cc(OC)c1OC | > 20 µM | > 100 µM | > 20 µM | > 100 µM | > 20 µM | > 20 µM |  |  |  |  |
| COc1cc(C(=O)c2csc(-c3cccc(F)c3)n2)cc(OC)c1OC | 0.024 µM | 0.304 µM | 0.021 µM | 0.287 µM | 0.035 µM | 0.011 µM |  |  |  |  |
| O=C(c1ccccn1)c1csc(-c2ccccc2)n1 | > 20 µM | > 100 µM | > 20 µM | > 100 µM | > 20 µM | > 20 µM |  |  |  |  |
| COc1cc(NC(=O)[C@@H]2CSC(c3cc(OC)c(OC)c(OC)c3)N2)cc(OC)c1OC (mixture of isomers) | > 20 µM | > 100 µM | > 20 µM | > 100 µM | > 20 µM | > 20 µM |  |  |  |  |
| COc1cc(C(=O)c2csc(-c3ccc(N)cc3)n2)cc(OC)c1OC | 0.012 µM | 0.011 µM | 0.015 µM | 0.029 µM | 0.02 µM | 0.013 µM |  |  |  |  |
| COc1cc(C(=O)c2csc(-c3ccc(C)cc3)n2)cc(OC)c1OC | 0.005 µM | 0.011 µM | 0.006 µM | 0.021 µM | 0.007 µM |  |  |  |  |  |
| COc1cc(C(=O)c2csc(-c3ccc(C(=O)O)cc3)n2)cc(OC)c1OC | > 20 µM | > 100 µM | > 20 µM | > 100 µM | > 20 µM | > 20 µM |  |  |  |  |
| COc1cc(C(=O)c2csc(-c3ccc(C(F)(F)F)cc3)n2)cc(OC)c1OC | 0.058 µM | 0.023 µM | 0.076 µM |  | 0.05 µM | 0.094 µM |  |  |  |  |
| COC(=O)c1ccc(-c2nc(C(=O)c3cc(OC)c(OC)c(OC)c3)cs2)cc1 | > 20 µM | > 100 µM | > 20 µM | > 100 µM | > 20 µM | > 20 µM |  |  |  |  |
| COc1cc(C(=O)c2cscn2)cc(OC)c1OC | > 20 µM | > 100 µM | > 20 µM | > 100 µM | > 20 µM | > 20 µM |  |  |  |  |
| COc1cc(NC(=O)[C@@H]2CSC(c3ccccc3)=N2)cc(OC)c1OC | > 20 µM | 22.8 µM | 5.3 µM | 38.3 µM | > 20 µM | > 20 µM |  |  |  |  |
| O=C(c1csc(-c2ccccc2)n1)c1ccccc1F | > 20 µM | > 100 µM | > 20 µM | > 100 µM | > 20 µM | > 20 µM |  |  |  |  |
| COc1ccccc1C(=O)c1csc(-c2ccccc2)n1 | > 20 µM | 70.3 µM | > 20 µM | 59.4 µM | > 20 µM | > 20 µM |  |  |  |  |
| COc1cc(C(=O)c2csc(-c3ccncc3)n2)cc(OC)c1OC [listing 2 of 2 here] |  |  |  |  |  |  |  |  | 18 µM | 16.6 µM |
| COc1cc(C(=O)c2csc(-c3cccs3)n2)cc(OC)c1OC |  | 0.02 µM | 0.013 µM | 0.038 µM | 0.022 µM | 0.009 µM |  |  |  |  |
